# Measurements from patent publication US12421228B2 (Mirati Therapeutics, Inc., priority 2019, dated 2025).
# pIC50: −log10 of the molar value.
# Legend:
# [1] = tested on: Karpas 422 cells (EZH2 Y641N); test: Karpas 422 cell viability (Cell Titre Glo); type: cell-based; details: Homo sapiens, CTG viability, Day 4, Day 7 or Day 11 (time point not given), read-out: IC50 (nM), Inhibiting Proliferation of Cells Expressing an Activating Mutant Form of EZH2
# Protocol: Karpas 422 cell line is a human B cell non-Hodgkin's lymphoma cell line established from a patient having DLBCL. This EZH2 heterozygotic cell line expresses a mutant form of EZH2 enzyme (Y641N) that increases histone H3 methylation and this mutation has been implicated in the tumorgenesis of lymphomas, such as DLBCL.
# Karpas 422 cells (PHE cat no., 06101702) were cultured in RPMI medium supplemented with 20% fetal bovine serum and 1% penicillin/1% streptomycin and plated at a density of 1000 cells/90 μl/well in 96 well white assay plates. A dose response curve for compounds of the present invention was determined by adding a 10 μl aliquot of stock solutions of varying concentrations of compounds to the same medium in each well, over a concentration range of 10 μM using 3-fold dilutions to a final concentration of 1.5 nM. The plates were incubated at 37° C. for predetermined time periods, Day 4, Day 7, or Day 11, and the viability of the cells was measured using a CTG assay kit (Cell Titre Glo; Promega cat. no G7573) on Day 4 and Day 7 in accordance with the manufacturer's instructions.
# For the viability assay for the Day 11 plates, the plates were subjected to centrifugation at 1100 rpm for five minutes on Day 7 and the supernatant was removed by aspiration. The cells were resuspended in 90 μl aliquot of the appropriate growth medium lacking the compound followed by addition of 10 μl of a 10× stock of the same compound at the same concentration. The viability of the Day 11 cells was measured using the CTG assay kit described above in accordance with the manufacturer's instructions. The IC50 values for each compound at each predetermined time point were calculated using Graph pad PRISM software and the results are shown in Table 8. A=≤250 nM; B=[…]−≤500 nM; C=>500 nM and N.D.=not determined.
# [2] = molecular target: purified human, His-tagged PRC2 complex (Homo sapiens (Human), UniProt O75530); test: Hot Spot HMT assay, inhibition of PRC2 enzymatic activity; type: biochemical; details: 10 nM PRC2 complex, 0.05 mg/ml core histone H3, 1 μM 3H-SAM, 1 hr at 30° C.; read-out: IC50, Inhibition of PRC2-mediated Enzymatic Activity
# Chain of purified human, His-tagged PRC2 complex (Q15910 whole entry): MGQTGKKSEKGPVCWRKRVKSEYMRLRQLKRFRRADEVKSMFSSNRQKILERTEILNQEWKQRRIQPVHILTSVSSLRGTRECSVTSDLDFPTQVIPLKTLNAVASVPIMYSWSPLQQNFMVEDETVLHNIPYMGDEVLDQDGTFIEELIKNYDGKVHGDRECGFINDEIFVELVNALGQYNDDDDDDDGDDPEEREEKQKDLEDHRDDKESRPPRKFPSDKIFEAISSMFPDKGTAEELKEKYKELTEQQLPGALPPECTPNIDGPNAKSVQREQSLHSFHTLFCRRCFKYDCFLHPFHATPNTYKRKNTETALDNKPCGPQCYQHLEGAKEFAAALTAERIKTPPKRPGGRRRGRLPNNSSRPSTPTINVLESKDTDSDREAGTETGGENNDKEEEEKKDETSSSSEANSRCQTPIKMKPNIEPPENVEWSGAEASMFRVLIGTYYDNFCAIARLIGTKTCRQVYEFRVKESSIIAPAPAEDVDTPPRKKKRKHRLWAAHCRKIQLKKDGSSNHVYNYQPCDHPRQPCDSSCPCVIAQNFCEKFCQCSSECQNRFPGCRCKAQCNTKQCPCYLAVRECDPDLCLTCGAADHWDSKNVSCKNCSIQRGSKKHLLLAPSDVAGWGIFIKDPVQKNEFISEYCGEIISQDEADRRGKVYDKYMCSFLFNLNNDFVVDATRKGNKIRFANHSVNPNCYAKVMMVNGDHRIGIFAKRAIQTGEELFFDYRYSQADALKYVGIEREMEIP
# Chain of purified human, His-tagged PRC2 complex (O75530 whole entry): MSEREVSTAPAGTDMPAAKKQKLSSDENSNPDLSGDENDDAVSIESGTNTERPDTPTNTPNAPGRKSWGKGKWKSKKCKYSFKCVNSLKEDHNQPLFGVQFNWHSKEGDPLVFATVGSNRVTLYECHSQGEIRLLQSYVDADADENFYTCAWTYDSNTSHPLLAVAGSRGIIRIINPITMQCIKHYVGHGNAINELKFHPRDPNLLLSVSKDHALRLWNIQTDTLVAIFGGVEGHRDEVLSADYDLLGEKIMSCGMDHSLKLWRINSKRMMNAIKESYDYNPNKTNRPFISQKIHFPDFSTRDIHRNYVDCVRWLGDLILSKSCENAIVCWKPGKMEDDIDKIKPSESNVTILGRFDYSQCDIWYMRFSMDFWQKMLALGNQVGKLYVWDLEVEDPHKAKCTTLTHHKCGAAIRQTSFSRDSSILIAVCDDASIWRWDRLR
# Chain of purified human, His-tagged PRC2 complex (Q15022 whole entry partner): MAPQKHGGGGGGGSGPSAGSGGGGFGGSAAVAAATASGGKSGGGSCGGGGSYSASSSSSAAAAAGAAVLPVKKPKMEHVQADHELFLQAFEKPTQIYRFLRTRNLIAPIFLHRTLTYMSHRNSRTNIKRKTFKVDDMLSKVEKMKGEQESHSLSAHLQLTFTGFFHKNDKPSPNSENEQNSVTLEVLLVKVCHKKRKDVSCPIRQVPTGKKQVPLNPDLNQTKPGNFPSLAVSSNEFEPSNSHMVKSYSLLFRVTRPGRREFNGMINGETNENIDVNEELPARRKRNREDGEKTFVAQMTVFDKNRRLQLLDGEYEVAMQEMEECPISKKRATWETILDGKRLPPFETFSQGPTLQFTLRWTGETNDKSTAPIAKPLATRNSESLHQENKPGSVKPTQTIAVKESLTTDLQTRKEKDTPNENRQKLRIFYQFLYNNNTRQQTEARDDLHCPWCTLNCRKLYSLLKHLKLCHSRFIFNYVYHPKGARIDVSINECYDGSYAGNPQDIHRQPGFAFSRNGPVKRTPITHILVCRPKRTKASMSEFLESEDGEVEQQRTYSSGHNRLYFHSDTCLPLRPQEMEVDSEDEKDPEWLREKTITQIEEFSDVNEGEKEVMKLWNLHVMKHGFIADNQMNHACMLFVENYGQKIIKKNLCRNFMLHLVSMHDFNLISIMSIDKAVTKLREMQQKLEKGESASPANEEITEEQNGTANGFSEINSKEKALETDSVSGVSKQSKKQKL
# Chain of purified human, His-tagged PRC2 complex (Q6ZN18 whole entry partner): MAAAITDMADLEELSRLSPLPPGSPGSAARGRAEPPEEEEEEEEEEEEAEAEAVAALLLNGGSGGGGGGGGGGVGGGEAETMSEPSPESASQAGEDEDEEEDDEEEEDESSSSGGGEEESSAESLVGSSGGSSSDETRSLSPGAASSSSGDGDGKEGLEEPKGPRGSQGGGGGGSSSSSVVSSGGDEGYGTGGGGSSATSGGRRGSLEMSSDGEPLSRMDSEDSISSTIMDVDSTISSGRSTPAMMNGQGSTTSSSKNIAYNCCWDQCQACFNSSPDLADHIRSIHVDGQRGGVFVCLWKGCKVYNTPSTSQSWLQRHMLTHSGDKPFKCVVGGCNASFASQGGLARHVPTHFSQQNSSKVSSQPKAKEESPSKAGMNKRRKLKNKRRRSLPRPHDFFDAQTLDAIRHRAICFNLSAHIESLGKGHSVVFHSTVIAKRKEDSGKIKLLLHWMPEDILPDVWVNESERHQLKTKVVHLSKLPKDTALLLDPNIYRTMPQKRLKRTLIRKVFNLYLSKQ
# Chain of purified human, His-tagged PRC2 complex (Q09028 whole entry partner): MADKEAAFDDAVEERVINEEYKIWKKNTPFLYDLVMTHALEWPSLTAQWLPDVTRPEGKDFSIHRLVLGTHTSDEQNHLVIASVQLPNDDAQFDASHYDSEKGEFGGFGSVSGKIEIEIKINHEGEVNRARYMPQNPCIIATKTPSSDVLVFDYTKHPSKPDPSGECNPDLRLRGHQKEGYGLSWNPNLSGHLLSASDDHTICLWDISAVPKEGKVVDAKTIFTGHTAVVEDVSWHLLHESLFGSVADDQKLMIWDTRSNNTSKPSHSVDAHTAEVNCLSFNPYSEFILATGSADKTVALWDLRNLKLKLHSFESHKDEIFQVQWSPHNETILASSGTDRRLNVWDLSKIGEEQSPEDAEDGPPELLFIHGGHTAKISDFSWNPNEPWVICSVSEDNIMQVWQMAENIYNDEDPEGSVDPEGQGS
# Protocol: Ten-point dose-response curves for compounds of the present invention were determined using a Hot Spot HMT assay (Reaction Biology Corp; see Horiuchi et al., Assay Drug Dev Technol. (2013) 4: 227-236 doi: 10.1089/adt.2012.480). The assay uses purified human, His-tagged PRC2 complex, including N-terminal His-tagged EZH2 enzyme, N-terminal Flag-tagged embryonic ectoderm development protein (EED), N-terminal His-tagged suppressor of zeste 12 (SUZ12), N-terminal His-tagged AEBP2, and N-terminal His-tagged RbAp48. In this assay, the transfer of the tritiated methyl group from radiolabeled S-adenosyl methionine (SAM) to purified core histone protein by EZH2 is quantitated after filtration to determine the activity of the core PRC2 complex in the presence and absence of compound.
# Briefly, compounds of the present invention were solubilized in DMSO and a series of 10, three-fold serial dilutions were made for each compound in 15% DMSO. The initial starting concentration for the serial dilutions of each compound was 1.0 μM. Control samples lacking compound, EZH2 enzyme or various reaction components also were prepared and processed in parallel with compound test samples. SAH (S-(5-adenosyl)-L-homocysteine) was used as a positive control for assay validation.
# An aliquot of each serial dilution of test compound was added to deep 384 well plate using Acoustic Technology instrument (Echo 550, LabCyte) containing reaction buffer (50 mM Tris-HCl (pH 8)), 0.01% Brij35, 1 mM EDTA, 1 mM DTT, 1 mM PMSF and 1% DMSO), 10 nM purified PRC2 complex and 0.05 mg/ml core histone H3 in a 5 μl volume. The reaction was mixed gently and then pre-incubated for 20 min at 30° C. The enzymatic reaction was initiated by adding 1 μM S-Adenosyl-L-[methyl-^3H]methionine and incubated for 1 hr at 30° C. After 1 hr, the reaction product was detected using a filter binding method and the amount of tritiated H3 core histone was quantitated using a scintillation counter. The IC50 value for each compound was determined from each 10-point dose-response curve using GraphPad Prism software and the results for compounds of present invention, including compounds of Formula (I) and Formula (II) are shown in Table 6. Key: A=<100 nM; B=>100 nM−<250 nM; and C=>250 nM.
# [3] = tested on: PRC2-mediated histone H3 methylation in Pfeiffer cells (EZH2 A677G); test: Tri-Methyl Histone H3 (Lys 27) sandwich ELISA in Pfeiffer cells; type: cell-based; details: Homo sapiens, 96 hours incubation, H3K27me3 ELISA, read-out: IC50 (nM), Inhibition of EZH2-mediated Histone H3 Trimethylation
# Description: The Pfeiffer cell line was established from a […] from a patient having metastatic diffuse large B-cell lymphoma (DLBCL). This cell line expresses a mutant form of the EZH2 enzyme (A677G) that results in enhanced EZH2 activity leading to increased methylation of histone H3 Lys27. Increased trimethylation of histone H3 Lys27 is believed to be implicated in tumorgenesis and poor clinical prognosis in lymphomas (McCabe et al., (2012) Nature 492:108-112).
# Inhibition of PRC2-mediated histone H3 methylation by compounds of Formula (I) was measured by ELISA using a Tri-Methyl Histone H3 (Lys 27) Sandwich ELISA Kit (Cell Signaling Tech #7866C) in accordance with the manufacturer's instructions. Briefly, Pfeiffer cells were cultured in RPMI medium supplemented with 10% fetal bovine serum and 1% penicillin and 1% streptomycin in 96 well culture plates at 37° C. to a density of 8000 cells/90 μl/well and the cells were harvested. A series of 3-fold serial dilutions of each test compound of Formula (I) were prepared in RPMI medium and added to the cells at final concentrations ranging from […] to 0.15 nM. The plates were incubated at 37° C. for 96 hours.
# After incubation, the cells were pelleted by centrifugation in a pre-cooled 4° C. rotor at 1,100 rpm for 10 min and the supernatant was removed by aspiration. The cell pellet was resuspended in 55 μl of Lysis Buffer (0.4M HCl) and incubated on ice with periodic shaking for 30 minutes. The lysed cells were subjected to centrifugation at 4,200 rpm for 10 min at 4° C. and the supernatant containing acid-soluble proteins was collected and the remainder discarded. The acid-soluble proteins were brought to a neutral pH by the addition of 20 μl of Neutralization Buffer (1 M Sodium phosphate, dibasic (pH 12.5), 2.5 mM DTT and 1 mM PMSF) and the neutralized lysates were analyzed by ELISA.
# A 65 μl aliquot of each cell lysate was added to a well of a microwell strip, the microwells were sealed using tape and incubated either at 37° C. for two hours or at 4° C. overnight. After incubation, the tape was removed at the microwells were washed four times using 200 μl of 1× Wash Buffer. To each washed microwell, a 100 μl aliquot of an anti-trimethyl histone H3 Lys27 Detection Antibody solution was added and the microwells were incubated at 37° C. for one hour. The Detection Antibody solution was removed by aspiration and the wells were washed four times each using 200 μl of 1× Wash Buffer.
# A 100 μl aliquot of an HRP-linked secondary antibody was added to each well, the wells were sealed with tape and incubated at 37° C. for 30 min. The HRP-linked secondary antibody solution was removed by aspiration and the wells were washed four times using 200 μl of 1× Wash Buffer. A 100 μl aliquot of a TMB substrate was added to each well, the wells were sealed with tape and incubated at 37° C. for 10 min or 25° C. for 30 min. The reaction was stopped by the addition of 100 μl aliquot of a STOP solution and the plate was shaken briefly. The degree of histone H3 trimethylation was determined using a spectrophotometric readout by measuring the absorbance at 450 nm and then calculating the amount of trimethylated histone H3. A=≤100 nM; B=>100 nM−≤500 nM; C=>500 nM and N.D.=not determined.
Structure (SMILES),IC50 [1] [nM],pIC50 [2],IC50 [3] [nM]
CN(C)Cc1ccc(-c2cnc(NCc3cccc4c3CCO4)c3cncnc23)cc1 [Example 25],≤ 250,< 6.60,100 to 500
"CNCc1ccc(-c2cnc(NCc3c(F)ccc4c3CCO4)c3cncnc23)c(C)c1 [Example 26, N-((5-fluoro-2,3-dihydrobenzofuran-4-yl)methyl)-8-(2-methyl-4-((methylamino)methyl)phenyl)pyrido[4,3-d]pyrimidin-5-amine]",≤ 250,> 7.00,≤ 100
"CSc1ncc2c(NCc3c(F)ccc4c3CCO4)ncc(-c3cc(C)nn3C)c2n1 [Example 27, 8-(1,3-dimethyl-1H-pyrazol-5-yl)-N-((5-fluoro-2,3-dihydrobenzofuran-4-yl)methyl)-2-(methylthio)pyrido[4,3-d]pyrimidin-5-amine]",≤ 250,> 7.00,100 to 500
"COc1ncc2c(NCc3c(F)ccc4c3CCO4)ncc(-c3cc(C)nn3C)c2n1 [Example 28, 8-(1,3-dimethyl-1H-pyrazol-5-yl)-N-((5-fluoro-2,3-dihydrobenzofuran-4-yl)methyl)-2-methoxypyrido[4,3-d]pyrimidin-5-amine]",≤ 250,> 7.00,100 to 500
"Cc1cc(-c2cnc(NCc3c(F)ccc4c3CCO4)c3cnccc23)n(C)n1 [Example 29, 4-(1,3-dimethyl-1H-pyrazol-5-yl)-N-((5-fluoro-2,3-dihydrobenzofuran-4-yl)methyl)-2,7-naphthyridin-1-amine]",250 to 500,> 7.00,100 to 500
Cc1cc(CN(C)C)ccc1-c1cnc(NCc2c(F)ccc3c2CCO3)c2cnccc12 [Example 30],> 500,< 6.60,> 500
Cc1cc(S(C)(=O)=O)ccc1-c1cnc(NCc2c(F)ccc3c2CCO3)c2cnccc12 [Example 31],> 500,6.60 to 7.00,> 500
"CN(C)C(=O)c1cc(-c2cnc(NCc3c(F)ccc4c3CCO4)c3cnccc23)n(C)n1 [Example 32, 5-(1-(((5-fluoro-2,3-dihydrobenzofuran-4-yl)methyl)amino)-2,7-naphthyridin-4-yl)-N,N,1-trimethyl-1H-pyrazole-3-carboxamide]",≤ 250,> 7.00,≤ 100
"Cn1nc(C#N)cc1-c1cnc(NCc2c(F)ccc3c2CCO3)c2cnccc12 [Example 33, 5-[1-[(5-fluoro-2,3-dihydrobenzofuran-4-yl)methylamino]-2,7-naphthyridin-4-yl]-1-methyl-pyrazole-3-carbonitrile]",> 500,6.60 to 7.00,> 500
"COc1cc2c(-c3cc(C)nn3C)cnc(NCc3c(F)ccc4c3CCO4)c2cn1 [Example 34, 4-(1,3-dimethyl-1H-pyrazol-5-yl)-N-((5-fluoro-2,3-dihydrobenzofuran-4-yl)methyl)-6-methoxy-2,7-naphthyridin-1-amine]",> 500,6.60 to 7.00,> 500
"Cc1cc(-c2cnc(NCc3c(F)ccc4c3CCO4)c3c[nH]c(=O)cc23)n(C)n1 [Example 35, 5-(1,3-dimethyl-1H-pyrazol-5-yl)-8-(((5-fluoro-2,3-dihydrobenzofuran-4-yl)methyl)amino)-2,7-naphthyridin-3(2H)-one]",≤ 250,> 7.00,≤ 100

# The next lines start with the values.
IC50 [1] [nM],pIC50 [2],IC50 [3] [nM],Structure (SMILES)
≤ 250,> 7.00,≤ 100,"CCNCc1ccc(-c2cnc(NCc3c(F)ccc4c3CCO4)c3cnncc23)c(C)c1 [Example 20, 8-(4-((ethylamino)methyl)-2-methylphenyl)-N-((5-fluoro-2,3-dihydrobenzofuran-4-yl)methyl)pyrido[3,4-d]pyridazin-5-amine]"
≤ 250,6.60 to 7.00,100 to 500,"CNCc1ccc(-c2cnc(NCc3c(F)ccc4c3CCO4)c3cnncc23)cc1 [Example 21, N-((5-fluoro-2,3-dihydrobenzofuran-4-yl)methyl)-8-(4-((methylamino)methyl)phenyl)pyrido[3,4-d]pyridazin-5-amine]"
≤ 250,> 7.00,≤ 100,"Cc1cc(-c2cnc(NCc3c(F)ccc4c3CCO4)c3cncnc23)n(C)n1 [Example 22, 8-(1,3-dimethyl-1H-pyrazol-5-yl)-N-((5-fluoro-2,3-dihydrobenzofuran-4-yl)methyl)pyrido[4,3-d]pyrimidin-5-amine]"
≤ 250,> 7.00,100 to 500,CN(C)Cc1ccc(-c2cnc(NCc3c(F)ccc4c3CCO4)c3cncnc23)cc1 [Example 23]
≤ 250,> 7.00,≤ 100,Cc1cc(CN(C)C)ccc1-c1cnc(NCc2c(F)ccc3c2CCO3)c2cncnc12 [Example 24]
